Experiment [1] relates to primary astrocytes. Kind of experiment: High throughput screening (HTS) for lactate secretion: acidification of extracellular medium (SNARF5). Further details: key to Score / HTS Score (SNARF5) / Score_SNARF: fraction of plate positive-control activity (1 = 100%). The class given is cell-based, mouse. Particulars: Appendix I, primary screening confirmation (SNARF5). The procedure, abridged: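 Mouse primary cortical astrocytes (DIV17) exposed to compounds at 10 uM final (1% DMSO) for 90 min in low-bicarbonate medium with SNARF-5F. Extracellular pH from 630/580 nm emission ratio (ex 480 nm); hits scored as % of CCCP 2 uM positive control, duplicate plates.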

For experiment [2], the system named is primary astrocytes. The experiment is described as follows: Extracellular lactate quantification. In kind it is cell-based, mouse. The note with it: Appendix I, secondary screening: extracellular lactate. The procedure, abridged:
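Astrocytes were stimulated 90 min at 37 °C in D5030 medium with 5 mM glucose and 44 mM bicarbonate, with compound at 0-100 μM. Extracellular lactate was measured enzymatically with LDH/NAD in glycine-semicarbazide buffer, pH 10, for 1 h at 37 °C. NADH fluorescence (340/450 nm) was converted to lactate using an L-lactate standard curve.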

Experiment [3] concerns primary astrocytes. Kind of experiment: Intracellular glycogen quantification, Example 2. The class given is cell-based, mouse. Particulars: 10 μM, 3 h. As for the experimental part:
Astrocytes grown on 12-well plates were used for intracellular glycogen quantifications. Cells were stimulated with Vehicle (DMSO), with compounds of the invention (10 μM), or with a positive control for 180 min, at 37° C. 5% CO2/95% air in D5030 medium complemented with
5 mM D-glucose and 44 mM sodium bicarbonate (pH 7.2). […] At the end of the stimulation, medium was removed and replaced with 600 μl of 30 mM Tris HCl, and stored at −20° C.
First, the amount of proteins in each sample was quantified to assess whether harvested astrocytes from primary cell cultures yielded enough and equivalent amounts of proteins on each replicates. Proteins were quantified using the micro BCA Protein Assay kit (Thermo Scientific), according to manufacturer's instructions. Next, intracellular glycogen concentrations were quantified using a 250 μl-aliquot of the same stimulated, thawed, and sonicated cell lysate. After an incubation period of 30 min at 90° C. and 400 rpm, 28 μl of a 0.1M acetic acid/sodium acetate buffer (pH 4.6) was added to each lysate aliquots, which were then separated in two. Each split aliquots received either 5 μl of amyloglucosidase or H2O, and incubated for 120 min at 37° C. After centrifugation at 16'000G for 5 min, 20 μl of supernatant were placed in a 96-well plate, to which 150 μl of a mix containing 0.67 mM ATP, 0.67 mM NADP, 1.8% hexokinase/glucose-6-phosphate dehydrogenase in a 0.1M Tris Buffer-HCl/3.3 mM magnesium (pH 8.1) buffer was added. Fluorescence intensity (340 nm excitation/440 nm emission) was measured using a Safire 2 spectrophotometer. Glucose concentrations were assessed relative to a glucose standard curve, and glycogen concentrations were calculated by subtracting glucose values of samples that had received amyloglucosidase (i.e. that had degraded their glycogen stores) to samples that had not. Intracellular levels of glycogen, which is the main source of glucose storage in the brain, were analyzed in primary astrocytes after treatment with compounds of interest (10 μM, 3 h) (FIG. 5B), and compound GP-0157 (0.1, 1, 10 μM, 3 h) (FIG. 20).

For experiment [4] the following is noted: ALS patients; cited from earlier work.

In the case of `O=S(=O)(Nc1cc(F)cc(F)c1)c1ccc2ccccc2c1` [T5884038], in the experiment on primary astrocytes [1], the Score_SNARF came out at 0.8379. Moreover, in the experiment with primary astrocytes [2], the Score_LACTATE turned out to be 0.9262. In addition, the “mobilization of intracellular glycogen” value in the experiment on primary astrocytes [3] is “significantly enhance”.
For `COc1ccc(Nc2nc(N3CCOCC3)c3ccccc3n2)cc1` [T0508-5190], in that order: 0.4029, 0.2892 and “significantly enhance”.
For `COc1ccccc1[N+]1=C2CCCCCN2C(O)(c2ccc(C)cc2)C1` (centres unmarked) [K404-0834], in that order: 1.022, 1.613 and “significantly enhance”.
On to `CC1=NN(c2ccccc2)C(=O)C1` [Ederavone, edaravone], for which the “prolongation of patients' lifetime” value in experiment [4] is listed as “a few months only”.
Consider `Nc1nc2ccc(OC(F)(F)F)cc2s1` [Riluzole], for which the “prolongation of patients' lifetime” value in experiment [4] is “a few months only”.
